Measured values from patent US20260274814A1, “THIENYL COMPOUNDS FOR THE TREATMENT OF A CENTRAL NERVOUS SYSTEM DISEASE OR DISORDER” (Coreterra Therapeutics, Inc., priority 2023, published 2026).
Where a name gives a salt, the structure may show the parent alone.

Test system: mice
Test: Neuropharmacological Assay (SmartCube): automated behavioral signature of compound-treated mice compared with a database of reference drug classes
Type: in vivo
Conditions: for minimal effective dose: Mus musculus, ip, minimal effective dose: dose having 45% or more total activity in SmartCube, i.p., if only one dose tested, that dose is shown, read-out: MED; for AD / AG / AN / AP / AX / CE / HL / MS / PS / SH / UK: SmartCube class probability, 3.0 mg/kg i.p., 15 min before test
Outline: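 Probabilities of matching each neuropharmacological class (e.g. anxiolytic, antidepressant) come from algorithmic analysis of digitally recorded behaviour, reported for 3.0 mg/kg. Compounds were given intraperitoneally in a Pharmasolve/PEG/propylene glycol vehicle 15 min pre-test. Minimal effective dose is the lowest dose reaching 45% or more total activity.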

Compound: Cc1cc2c(s1)CC(N)CO2 (stereo not drawn) [Compound 188, 2-methyl-6,7-dihydro-5H-thieno[3,2-b]pyran-6-amine hydrochloride]
- minimal effective dose: > 3 mg/kg
- AD: ND (^ <4%)
- AG: ND (^ <4%)
- AN: ND (^ <4%)
- AP: ND (^ <4%)
- AX: + (≥4%)
- CE: ND (^ <4%)
- HL: ND (^ <4%)
- MS: ND (^ <4%)
- PS: ND (^ <4%)
- SH: ND (^ <4%)
- UK: ++ (≥24%)

Compound: CN(C)C1CCc2sc(Cl)cc2C1 (stereo not drawn) [Compound 189, 2-chloro-N, N-dimethyl-4,5,6,7-tetrahydrobenzothiophen-5-amine hydrochloride]
- minimal effective dose: > 3 mg/kg
- AD: ND (^ <4%)
- AG: ND (^ <4%)
- AN: ND (^ <4%)
- AP: ND (^ <4%)
- AX: ND (^ <4%)
- CE: ND (^ <4%)
- HL: ND (^ <4%)
- MS: ND (^ <4%)
- PS: ND (^ <4%)
- SH: ND (^ <4%)
- UK: ++ (≥24%)

Compound: CNC1(C)CCc2scc(C(F)(F)F)c2C1 (stereo not drawn) [Compound 190, N, 5-dimethyl-3-(trifluoromethyl)-6,7-dihydro-4H-benzothiophen-5-amine hydrochloride]
- minimal effective dose: > 3 mg/kg
- AD: ND (^ <4%)
- AG: ND (^ <4%)
- AN: ND (^ <4%)
- AP: ND (^ <4%)
- AX: ND (^ <4%)
- CE: ND (^ <4%)
- HL: ND (^ <4%)
- MS: ND (^ <4%)
- PS: ND (^ <4%)
- SH: ND (^ <4%)
- UK: + (≥4%)

Compound: NC1CCc2csc(C3CC3)c2C1 (stereo not drawn) [Compound 193, 3-cyclopropyl-4,5,6,7-tetrahydro-2-benzothiophen-5-amine hydrochloride]
- minimal effective dose: > 3 mg/kg
- AD: ND (^ <4%)
- AG: ND (^ <4%)
- AN: + (≥4%)
- AP: ND (^ <4%)
- AX: ND (^ <4%)
- CE: ND (^ <4%)
- HL: ND (^ <4%)
- MS: ND (^ <4%)
- PS: ND (^ <4%)
- SH: ND (^ <4%)
- UK: ND (^ <4%)

Compound: CNC1CCc2sc(C)c(F)c2C1 (stereo not drawn) [Compound 196, 3-fluoro-N, 2-dimethyl-4,5,6,7-tetrahydrobenzothiophen-5-amine hydrochloride]
- minimal effective dose: 3 mg/kg
- AD: ND (^ <4%)
- AG: ND (^ <4%)
- AN: ND (^ <4%)
- AP: ND (^ <4%)
- AX: ND (^ <4%)
- CE: ND (^ <4%)
- HL: ND (^ <4%)
- MS: ND (^ <4%)
- PS: ND (^ <4%)
- SH: ND (^ <4%)
- UK: + (≥4%)

Compound: CNC1CCc2sc(C)cc2C1 (stereo not drawn) [Compound 197, N, 2-dimethyl-4,5,6,7-tetrahydrobenzothiophen-5-amine hydrochloride]
- minimal effective dose: 3 mg/kg
- AD: ND (^ <4%)
- AG: ND (^ <4%)
- AN: ND (^ <4%)
- AP: ND (^ <4%)
- AX: ND (^ <4%)
- CE: ND (^ <4%)
- HL: ND (^ <4%)
- MS: ND (^ <4%)
- PS: ND (^ <4%)
- SH: ND (^ <4%)
- UK: +++ (≥49%)

Compound: Cc1scc2c1CCC(C)(N)C2 (stereo not drawn) [Compound 200, 1,5-dimethyl-6,7-dihydro-4H-2-benzothiophen-5-amine hydrochloride]
- minimal effective dose: 3 mg/kg
- AD: ND (^ <4%)
- AG: ND (^ <4%)
- AN: ++ (≥24%)
- AP: ND (^ <4%)
- AX: ND (^ <4%)
- CE: ND (^ <4%)
- HL: + (≥4%)
- MS: ND (^ <4%)
- PS: ++ (≥24%)
- SH: ND (^ <4%)
- UK: ND (^ <4%)

Compound: CNC1CCc2scc(C3CC3)c2C1 (stereo not drawn) [Compound 201, 3-cyclopropyl-N-methyl-4,5,6,7-tetrahydrobenzothiophen-5-amine hydrochloride]
- minimal effective dose: 3 mg/kg
- AD: ND (^ <4%)
- AG: ND (^ <4%)
- AN: ND (^ <4%)
- AP: ND (^ <4%)
- AX: + (≥4%)
- CE: ND (^ <4%)
- HL: ND (^ <4%)
- MS: ND (^ <4%)
- PS: ND (^ <4%)
- SH: ND (^ <4%)
- UK: ++ (≥24%)

Compound: CNC1COc2c(sc(C)c2C)C1 (stereo not drawn) [Compound 202, N, 2,3-trimethyl-6,7-dihydro-5H-thieno[3,2-b]pyran-6-amine hydrochloride]
- minimal effective dose: 3 mg/kg
- AD: + (≥4%)
- AG: ND (^ <4%)
- AN: ND (^ <4%)
- AP: ++ (≥24%)
- AX: ++ (≥24%)
- CE: ND (^ <4%)
- HL: ND (^ <4%)
- MS: ND (^ <4%)
- PS: ND (^ <4%)
- SH: ND (^ <4%)
- UK: ND (^ <4%)

Compound: Cc1sc(F)c2c1CC(N)CC2 (stereo not drawn) [Compound 203, 1-fluoro-3-methyl-4,5,6,7-tetrahydro-2-benzothiophen-5-amine hydrochloride]
- minimal effective dose: 3 mg/kg
- AD: ND (^ <4%)
- AG: ND (^ <4%)
- AN: ND (^ <4%)
- AP: ND (^ <4%)
- AX: ND (^ <4%)
- CE: ND (^ <4%)
- HL: ND (^ <4%)
- MS: ND (^ <4%)
- PS: ND (^ <4%)
- SH: ND (^ <4%)
- UK: +++ (≥49%)

Compound: N#Cc1scc2c1CC(N)CC2 (stereo not drawn) [Compound 204, 6-amino-4,5,6,7-tetrahydro-2-benzothiophene-1-carbonitrile hydrochloride]
- minimal effective dose: 3 mg/kg
- AD: ND (^ <4%)
- AG: ND (^ <4%)
- AN: ND (^ <4%)
- AP: ++++ (≥74%)
- AX: ND (^ <4%)
- CE: ND (^ <4%)
- HL: ND (^ <4%)
- MS: ND (^ <4%)
- PS: ND (^ <4%)
- SH: ND (^ <4%)
- UK: ND (^ <4%)

Compound: NC1CCc2scc(C3CC3)c2C1 (stereo not drawn) [Compound 205, 3-cyclopropyl-4,5,6,7-tetrahydrobenzothiophen-5-amine hydrochloride]
- minimal effective dose: > 3 mg/kg
- AD: ND (^ <4%)
- AG: ND (^ <4%)
- AN: ND (^ <4%)
- AP: ND (^ <4%)
- AX: ND (^ <4%)
- CE: ND (^ <4%)
- HL: ND (^ <4%)
- MS: ND (^ <4%)
- PS: ND (^ <4%)
- SH: ND (^ <4%)
- UK: ++ (≥24%)

Compound: CNC1CCc2scc(C3CCC3)c2C1 (stereo not drawn) [Compound 206, 3-cyclobutyl-N-methyl-4,5,6,7-tetrahydrobenzothiophen-5-amine hydrochloride]
- minimal effective dose: 3 mg/kg
- AD: ND (^ <4%)
- AG: ND (^ <4%)
- AN: ND (^ <4%)
- AP: ND (^ <4%)
- AX: ND (^ <4%)
- CE: ND (^ <4%)
- HL: ND (^ <4%)
- MS: ND (^ <4%)
- PS: ND (^ <4%)
- SH: ND (^ <4%)
- UK: ++ (≥24%)
